{"source": "patent US9173871B2", "about": "“Oxazole and thiazole compounds as beta-catenin modulators and uses thereof” (New York University, priority 2008, dated 2015)", "key": {"[1]": {"test_system": "AR and β-catenin target genes in LNCaP cells", "assay": "Q-PCR of AR and β-catenin target genes in LNCaP cells", "format": "cell-based", "conditions": "20 μM, 24 hr", "excerpt": "Samples are normalized to RPL19 and E-cadherin and GAPDH are included as controls.\nWhile β-catenin can act as an AR coactivator [Song et al., J Biol Chem, 2005. 280(45): 37853-67], AR mRNA levels are also directly regulated by TCF binding sites in the AR promoter [Yang et al., Oncogene, 2006. 25(24): 3436-44]. […] AR mRNA was quantified along with well-characterized AR target genes, Nkx3.1 and PSA. In addition, CDC20, CDK1 and UBE2C, M phase cell cycle regulatory genes that are AR targets in LNCaP-abl cells were examined [Wang et al., Cell, 2009. 138(2): 245-56]. Levels of c-myc were also examined since c-myc is a known Wnt/β-catenin target gene and assessment of information available through the Memorial Sloan Kettering cBio Cancer Genomics portal [Taylor et al., Cancer Cell, 2010. […] E-cadherin and GAPDH are not affected by C3 treatment."}, "[2]": {"biological_target": "Wnt/wg pathway, Wnt-responsive luciferase reporter dTF12", "conditions": "Gonsalves et al., PNAS 2011; read-out: IC50, β-catenin-responsive luciferase reporter (dTF12); cited from earlier work"}, "[3]": {"test_system": "Wnt/β-catenin STF-LUC reporter in LNCaP-abl cells", "assay": "β-catenin/Wnt-responsive STF16-LUC reporter with S37A β-catenin in LNCaP-abl cells", "format": "cell-based", "experimental": "LNCaP or LNCaP-abl (ABL) cells were cotransfected with 0.1 μg β-galactosidase and 0.2 μg S37A stabilized β-catenin together with the indicated luciferase reporter constructs; STF16-LUC (β-catenin reporter) and LB1-LUC (AR reporter). […] Luciferase activity was normalized to β-galactosidase expression.\nTo determine the IC50 for the β-catenin/Wnt-responsive reporter, cells were cotransfected with β-galactosidase (LacZ) and a constitutively active S37A stabilized β-catenin mutant construct together with the reporter construct, STF16-LUC. To determine the IC50 for the AR-responsive construct, cells were cotransfected with LacZ and the AR responsive reporter construct, ARE-LUC. […] B) AR overexpression circumvents C3 repression of AR-responsive transcription. LNCaP cells were cotransfected with 0.1 μg LacZ and 0.2 μg of the AR responsive reporter construct, ARE-LUC, together with 0, 0.05, 0.1 and 0.2 μg of an AR expression vector. […] Luciferase activity was normalized to LacZ expression.\n108(15): 5954-63], it had not been determined in prostate cancer cells. […] 69(8): 3332-8]."}, "[4]": {"test_system": "LNCaP cells", "assay": "Flow cytometry DNA content (propidium iodide), LNCaP", "format": "cell-based", "conditions": "20 μM, 24 hr", "experimental": "(§1) A) Cells were cultured in phenol-red free RPMI with either 5% charcoal-stripped FBS supplemented with 0.1 nM R1881 (LNCaP) or 10% charcoal-stripped FBS alone (LNCaP-abl). […] Neutral red uptake assay was performed at the end of treatment to estimate the number of viable cells. […] Fixed cells were stained with Propidium Iodide and analyzed for DNA content using flow cytometry. The first and the second red peak and the dashed area represent G0/G1, M and S-phase cell population, respectively."}, "[5]": {"test_system": "HEK 293 cells", "assay": "Neutral red uptake growth assay, HEK293", "format": "cell-based", "conditions": "HEK 293, higher levels of C3 (10 or 20 μM daily)", "experimental": "Left panel; HEK293 cells were cultured in DMEM with 10% FBS. […] Neutral red uptake assay was performed at the end of treatment to estimate the number of viable cells."}, "[6]": {"test_system": "AR nascent mRNA", "assay": "Q-PCR of nascent AR mRNA in LNCaP cells", "format": "cell-based", "conditions": "20 μM, four hours, presence or absence of R1881", "experimental": "RNA was extracted, treated with deoxyribonuclease and subjected to cDNA synthesis. Relative levels of nascent AR mRNA were analyzed by Q-PCR using primers flanking exon/exon and exon/intron."}, "[7]": {"test_system": "LNCaP cells", "assay": "Proliferation assay (neutral red uptake), LNCaP", "format": "cell-based", "conditions": "20 μM daily", "experimental": "as §1"}, "[8]": {"test_system": "membrane bound β-catenin", "assay": "Immunofluorescence of membrane β-catenin in androgen-deprived LNCaP cells", "format": "cell-based", "excerpt": "An important objective in the initial screen for inhibitors of β-catenin responsive transcription (iCRT) was to isolate compounds that diminished the nuclear function of β-catenin without affecting β-catenin interaction with E-cadherin at the cell membrane."}, "[9]": {"test_system": "LNCaP-abl cells", "assay": "Flow cytometry DNA content (propidium iodide), LNCaP-abl", "format": "cell-based", "conditions": "20 μM, 24 hr", "experimental": "as §1"}, "[10]": {"test_system": "AR and β-catenin target genes in LNCaP-abl cells", "assay": "Q-PCR time course of AR and β-catenin target genes in LNCaP-abl cells", "format": "cell-based", "conditions": "single dose at time 0, persists for 48 hours, FIG. 16A", "experimental": "ABL cells were treated similarly, but cultured in 5% charcoal-stripped phenol-red free RPMI. The mRNA was extracted at each time point and relative levels of indicated genes were analyzed by Q-PCR and normalized to RPL19. B) Protein from LNCaP cells was analyzed at each time point and immunoblotted with indicated antibodies.\nExpression of tubulin (included as an internal loading control) and β-catenin were unaffected."}, "[11]": {"test_system": "HCT116 cells", "assay": "Flow cytometry cell cycle analysis of HCT116 cells", "format": "cell-based", "conditions": "HCT116, 16 hrs, FIG. 9", "experimental": "In order to test the inhibitory effect of candidate compounds on the transcription of endogenous Wnt/β-cat target genes in HCT116 cells, lysates were prepared from cells that were either treated with candidate small molecules or DMSO control. […] Cell cycle arrest of compound treated HCT116 cells was further confirmed by the reduced number of phosphorylated Histone3 (PH3) positive cells, when cultured in the presence of candidate compounds (FIG. 10).\nFlow Cytometry analysis was performed on HCT116 cells treated with candidate compounds for 16 hrs per standard protocols. Briefly, compound treated cells were harvested and washed in 1×PBS followed by fixation in 70% Ethanol at 4° C. for 16 hrs. Cells were then washed in 1×PBS and treated with RNAse at 37° C. for 30′. Following extensive washes in 1×PBS, cellular DNA was stained with 500 ug/ml of Propidium Iodide at room temperature for 10′. Cells were washed again in 1×PBS and analysed by flow cytometry on a FACScalibur machine (Beckson Dickinson) at the NYU flow cytometry core facility."}, "[12]": {"assay": "Toxicity / maximum tolerated dose in mice", "format": "in vivo", "experimental": "Importantly, given the role of the Wnt/β-catenin pathway as a regulator of intestinal stem cells [Korinek et al., Nat Genet, 1998. 19(4): 379-83; van de Wetering et al., Cell, 2002. […] Accordingly, mice were injected 5 days/week for 5 weeks at a range of concentrations between 50-125 mg/Kg and compared to vehicle-alone control. Toxicity was monitored by assessing mouse weight, blood counts and mortality. The MTD determination was performed at the fee-for-service, anti-tumor assessment facility at Memorial Sloan Kettering Cancer Center."}, "[13]": {"test_system": "LNCaP cells", "assay": "PARP cleavage immunoblot as marker of apoptosis, LNCaP", "format": "cell-based", "conditions": "20 μM, 72 hr"}, "[14]": {"conditions": "75 mg/Kg injected 5 days a week for 5 weeks"}}, "data": [{"molecule": "CCc1ccc(-c2nc(CSCC(=O)NCCc3ccccc3)c(C)o2)cc1", "note": "[Compound C3]", "values": [{"measurement": "mRNA of E-cadherin and GAPDH (controls)", "setting": "[1]", "value": "not affected"}, {"measurement": "mRNA of AR, NR×3.1, CDC20, PSA, CDK1, c-myc and UBE2C", "setting": "[1]; with or without R1881", "value": "diminished"}, {"measurement": "IC50", "setting": "[2]", "value": 8.2, "unit": "nM"}, {"measurement": "IC50", "setting": "[3]", "value": 890, "unit": "nM"}, {"measurement": "Wnt reporter gene activity (STF16-LUC)", "setting": "[3]; 20 uM, 24 hr", "value": "inhibits"}, {"measurement": "cell cycle effect by flow cytometry", "setting": "[4]", "value": "growth arrest of the cells in the G0/G1 phase"}, {"measurement": "293 cell growth", "setting": "[5]", "value": "somewhat slow"}, {"measurement": "levels of newly synthesized AR mRNA", "setting": "[6]", "value": "diminishes"}, {"measurement": "cell growth", "setting": "[7]", "value": "completely abolished"}, {"measurement": "ability of β-catenin to interact with E-cadherin at the cell membrane", "setting": "[8]", "value": "does not affect"}, {"measurement": "cell cycle effect by flow cytometry", "setting": "[9]", "value": "growth arrest of the cells in the G0/G1 phase"}, {"measurement": "AR, CDK1, UBE2C and c-myc mRNA", "setting": "[10]", "value": "diminished"}, {"measurement": "cell cycle effect", "setting": "[11]", "value": "G0/G1 arrest"}, {"measurement": "body weight", "setting": "[12]; [14]", "value": "did not lose weight"}, {"measurement": "gut toxicity", "setting": "[12]; [14]", "value": "no gut toxicity"}, {"measurement": "histology of all major organs", "setting": "[12]; [14]", "value": "normal"}, {"measurement": "toxicity (overall)", "setting": "[12]; [14]", "value": "not toxic"}, {"measurement": "toxicity", "setting": "[12]; continuous injection of 20 mg/Kg by mini-pump for 5 weeks", "value": "no toxicity"}, {"measurement": "PARP cleavage (apoptosis marker)", "setting": "[13]", "value": "Increased levels of PARP cleavage"}]}]}
